How the values were obtained:
[1] = target: T1, human GLP-1R receptor (Homo sapiens, UniProt P43220, L260F); test: CHOK1 GLP-1R cAMP Assay; type: cell-based; settings: CHO-K1 cell line stably expressing human GLP-1R; HTRF cAMP detection
T1 construct: expressed in transfected cells; host or cells: CHO-K1 (ATCC CCL-61)
Outline: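 CHO-K1 cells, 800/well, stimulated 20 min at room temperature with compound in HEPES pH 7.4/HBSS/0.1% BSA plus IBMX (1 mM in the added buffer). cAMP measured by HTRF competitive immunoassay after ≥1 h, converted to pM via standard curve. EC50 from 4-parameter logistic fit; % effect relative to saturating GLP1(7-36)NH2.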

[2] = target: T2, human phosphodiesterase-3A (Homo sapiens, UniProt Q14432); test: PDE3 Assay; type: biochemical; settings: human recombinant enzyme expressed in Sf9 cells; formation of 5′AMP from cAMP
T2 construct: host or cells: Sf9 cells
Description: Evaluation of the effects of compounds on the activity of the human phosphodiesterase-3A is quantified by measuring the formation of 5′AMP from cAMP using a human recombinant enzyme expressed in Sf9 cells.
The test compound, reference compound or water (control) are added to a buffer containing 40 mM Tris/HCl (pH 7.4) and 8 mM MgCl2, 450 nM cAMP and 0.25 μCi [^3H]cAMP.
Thereafter, the reaction is initiated by addition of the enzyme (about 1 U) and the mixture is incubated for 20 min at 22° C.
For basal control measurements, the enzyme is omitted from the reaction mixture.
Following incubation SPA beads are added. After 30 min at 22° C. under shaking, the amount of [^3H]5′AMP is quantified with a scintillation counter (Topcount, Packard).
The results are expressed as a percent inhibition of the control enzyme activity. The standard inhibitory reference compound is milrinone (CAS number 78415-72-2), which is tested in each experiment at several concentrations to obtain an inhibition curve from which its IC50 value is calculated.

[3] = target: T3, endogenous human glucagon-like peptide 1 receptor (GLP-1R) (Homo sapiens, UniProt P43220); test: EndoC cAMP Accumulation Assay; type: cell-based; settings: EndoC-βH1 human pancreatic β cell line; HTRF cAMP assay
T3 construct: endogenous human glucagon-like peptide 1 receptor (GLP-1R) in a pancreatic insulinoma cell line; host or cells: EndoC-βH1 human pancreatic β cell line
Outline: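 Thawed EndoC-βH1 cells (3000 per well) were stimulated for 30 min at room temperature in HBSS/25 mM HEPES pH 7.4, 0.1% BSA and 0.5 mM IBMX. cAMP was measured by HTRF competitive immunoassay after 1 h. Responses were fitted by 4-parameter logistic as % activation relative to maximal GIP (82.5 nM), with basal cAMP as zero.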

T3 sequence (P43220 24-463): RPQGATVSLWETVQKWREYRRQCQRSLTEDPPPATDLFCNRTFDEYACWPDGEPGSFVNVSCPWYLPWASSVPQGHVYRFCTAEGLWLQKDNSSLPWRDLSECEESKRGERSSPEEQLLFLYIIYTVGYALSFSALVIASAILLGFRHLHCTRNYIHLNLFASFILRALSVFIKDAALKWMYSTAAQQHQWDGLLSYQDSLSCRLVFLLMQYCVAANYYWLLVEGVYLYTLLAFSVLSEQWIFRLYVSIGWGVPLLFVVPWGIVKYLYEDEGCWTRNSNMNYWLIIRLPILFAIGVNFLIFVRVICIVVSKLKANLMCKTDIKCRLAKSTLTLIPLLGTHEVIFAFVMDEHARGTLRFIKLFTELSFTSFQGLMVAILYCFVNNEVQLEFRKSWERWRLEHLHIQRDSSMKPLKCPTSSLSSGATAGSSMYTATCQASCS
T2 sequence (Q14432 whole entry): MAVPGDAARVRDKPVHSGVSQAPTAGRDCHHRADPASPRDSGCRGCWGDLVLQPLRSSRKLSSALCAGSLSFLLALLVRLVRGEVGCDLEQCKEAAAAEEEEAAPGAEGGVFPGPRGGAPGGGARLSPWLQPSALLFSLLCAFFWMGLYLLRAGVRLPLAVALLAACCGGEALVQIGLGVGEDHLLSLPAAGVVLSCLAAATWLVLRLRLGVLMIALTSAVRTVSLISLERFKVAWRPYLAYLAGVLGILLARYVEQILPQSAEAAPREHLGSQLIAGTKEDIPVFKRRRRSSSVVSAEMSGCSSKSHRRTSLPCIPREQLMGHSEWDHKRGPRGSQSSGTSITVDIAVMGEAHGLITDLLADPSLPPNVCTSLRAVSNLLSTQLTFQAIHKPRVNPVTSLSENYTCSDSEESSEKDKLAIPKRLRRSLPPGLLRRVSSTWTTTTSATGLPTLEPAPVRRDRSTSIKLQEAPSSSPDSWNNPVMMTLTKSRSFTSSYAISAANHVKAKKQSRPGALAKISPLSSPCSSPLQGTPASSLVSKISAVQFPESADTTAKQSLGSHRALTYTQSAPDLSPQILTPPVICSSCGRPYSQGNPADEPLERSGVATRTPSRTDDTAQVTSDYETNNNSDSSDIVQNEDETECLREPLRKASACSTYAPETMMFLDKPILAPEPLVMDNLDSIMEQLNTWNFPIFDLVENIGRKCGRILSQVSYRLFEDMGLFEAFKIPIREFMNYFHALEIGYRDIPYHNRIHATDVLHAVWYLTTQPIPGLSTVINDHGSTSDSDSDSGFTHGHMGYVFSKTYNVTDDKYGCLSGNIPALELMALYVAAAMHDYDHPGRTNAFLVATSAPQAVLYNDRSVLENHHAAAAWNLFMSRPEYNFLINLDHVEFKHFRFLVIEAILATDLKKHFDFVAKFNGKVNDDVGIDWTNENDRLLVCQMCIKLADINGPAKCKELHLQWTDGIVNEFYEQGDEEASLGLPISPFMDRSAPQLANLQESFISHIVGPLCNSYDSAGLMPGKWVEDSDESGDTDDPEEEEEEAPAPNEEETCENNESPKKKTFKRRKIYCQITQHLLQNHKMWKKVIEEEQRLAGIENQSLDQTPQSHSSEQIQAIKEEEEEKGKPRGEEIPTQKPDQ
T1 sequence (P43220 24-463 L260F): as the sequence (P43220 24-463) above, with L237F counted along it

Compound	EC50 [1] [nM]	IC50 [2] [nM]	EC50 [3] [nM]
C[C@]1(c2ccc(Cl)cc2F)Oc2cccc(N3CCN(Cc4nc5ccc(C(=O)O)cc5n4C[C@@H]4CCO4)[C@H]4COC[C@H]43)c2O1 (single isomer, unassigned) [Example 6a, 2-(((4aR*,7aS*)-4-((R*)-2-(4-Chloro-2-fluorophenyl)-2-methylbenzo[d][1,3]dioxol-4-yl)hexahydrofuro[3,4-b]pyrazin-1(2H)-yl)methyl)-1-(((S)-oxetan-2-yl)methyl)-1H-benzo[d]imidazole-6-carboxylic acid]	1.5	> 100000	0.92
C[C@]1(c2ccc(Cl)cn2)Oc2cccc(N3CCN(Cc4nc5ccc(C(=O)O)cc5n4C[C@@H]4CCCO4)[C@H]4COC[C@H]43)c2O1 (single isomer, unassigned) [Example 8a, 2-(((4aR*,7aS*)-4-((R*)-2-(5-Chloropyridin-2-yl)-2-methylbenzo[d][1,3]dioxol-4-yl)hexahydrofuro[3,4-b]pyrazin-1(2H)-yl)methyl)-1-(((S)-tetrahydrofuran-2-yl)methyl)-1H-benzo[d]imidazole-6-carboxylic acid]	15	> 100000	17
C[C@]1(c2ccc(Cl)cn2)Oc2cccc(N3CCN(Cc4nc5c(F)cc(C(=O)O)cc5n4C[C@@H]4CCO4)[C@H]4COC[C@H]43)c2O1 (single isomer, unassigned) [Example 9a, 2-(((4aR*,7aS*)-4-((R*)-2-(5-Chloropyridin-2-yl)-2-methylbenzo[d][1,3]dioxol-4-yl)hexahydrofuro[3,4-b]pyrazin-1(2H)-yl)methyl)-4-fluoro-1-(((S)-oxetan-2-yl)methyl)-1H-benzo[d]imidazole-6-carboxylic acid]	1.5	> 100000	3.9
C[C@]1(c2ccc(Cl)cn2)Oc2cccc(N3CCN(Cc4nc5c(F)cc(C(=O)O)cc5n4C[C@@H]4CCO4)[C@H]4COC[C@H]43)c2O1 (single isomer, unassigned) [Example 9d, 2-(((4aR*,7aS*)-4-((R*)-2-(5-Chloropyridin-2-yl)-2-methylbenzo[d][1,3]dioxol-4-yl)hexahydrofuro[3,4-b]pyrazin-1(2H)-yl)methyl)-4-fluoro-1-(((S)-oxetan-2-yl)methyl)-1H-benzo[d]imidazole-6-carboxylic acid]	320	> 100000	2100

Next, values leading:

EC50 [1] [nM]	IC50 [2] [nM]	EC50 [3] [nM]	Compound
3	> 100000	3	C[C@]1(c2ccc(Cl)cn2)Oc2cccc(N3CCN(Cc4nc5c(F)cc(C(=O)O)cc5n4CC4(CC#N)CC4)[C@H]4COC[C@H]43)c2O1 (single isomer, unassigned) [Example 21]
2.7	> 100000	3.2	C[C@]1(c2ccc(Cl)cn2)Oc2cccc(N3CCN(Cc4nc5c(F)cc(C(=O)O)cc5n4CC4(C#N)CC4)[C@H]4COC[C@H]43)c2O1 (single isomer, unassigned) [Example 22a]
1.8	> 100000	5	C[C@]1(c2ccc(Cl)cn2)Oc2cccc(N3CCN(Cc4nc5c(Cl)cc(C(=O)O)cc5n4CC4(C#N)CC4)[C@H]4COC[C@H]43)c2O1 (single isomer, unassigned) [Example 23a]
5.1	> 100000	8	C[C@]1(c2ccc(Cl)cn2)Oc2cccc(N3CCN(Cc4nc5ccc(C(=O)O)cc5n4CC4(CC#N)CC4)[C@H]4COC[C@H]43)c2O1 (single isomer, unassigned) [Example 25]

Source: US20250236627A1, “CERTAIN OCTAHYDROFURO[3,4- B]PYRAZINES AS GLP-1 RECEPTOR MODULATORS” (ASTRAZENECA AB, priority 2021, published 2025)
